In brackets after ≈: the same amount, converted by molar mass.
What was measured:
delta receptors = delta receptors (Homo sapiens, UniProt P41143); conditions: selectivity mu over delta
[1] = Oxidation stability (pure oxygen atmosphere, HPLC); format: physicochemical
Description: Oxidation Stability. Samples of the four final salt candidates were exposed to a pure oxygen atmosphere for 2 weeks to examiner their stability with respect to oxidation at 25° C. Samples were analyzed for CYT-1010 by total area normalization for impurity profile by HPLC.
(§1) HPLC Analysis. Salt candidates were analyzed by total area normalization (TAN). The samples were dissolved in acetonitrile:water (90:10) with 0.1% TFA at a free base concentration of 0.3 mg/mL.
(§2) • HPLC column: YMC-Pack ODS-A 150 mm, 4.6 mm, 5 micron • Guard Column (optional) None • Column Temp: 25±1° C. • Sample Temp: ambient • Autosampler Flush: 1:1 Water:CAN • Flow Rate: 1.5 mL/min • Injection Volume: 7 μL • UV Detection: 215 nm • Run Time: 32 minutes • Analysis Time: 32 minutes • Mobil Phase: A—0.1% TFA in water • B—0.1% TFA in CAN • Gradient Puym Program*: […]
Samples of the four salts were exposed to a pure oxygen atmosphere to examine their stability with respect to oxidation at 25° C.

[2] = HPLC impurity profile at time zero; format: physicochemical
Description: as §1, §2
The scaled-up aspartate, hydrochloride, lactate, and maleate salts together with the free base were analyzed in duplicate by total area normalization (TAN) to determine their impurity profiles. […] The salts were also stressed in solution using heat.
Samples were prepared at a free base concentration of 0.3 mg/mL. The diluent for all sample preparations was 90:10 acetronitrile:water with 0.1% TFA. All solutions were sonicated for at least five minutes prior to analysis. Analysis was done over four days. The impurity profile of the free base, as shown in the table below, was consistent over this time.
Time Zero. Some observations were made concerning the HPLC impurity profile of the free base and salt samples. First, impurities at 0.89, 0.92, 1.02, and 1.03 RRT (relative retention time) are detected in the time zero sample preparations of the free base and all four salts. The largest of these four impurities is the 1.02 RRT impurity which is between 0.4 and 0.5 area % in all five compounds. The maleate salt also has a very large impurity peak at time zero (2.7 area %) at 1.14 RRT. Thus the maleate salt has a relatively low area % purity of 96 area %.

[3] = Solution stability (HPLC total area normalization); format: physicochemical; conditions: for Solution stability, 2 weeks at 25° C. / Solution stability, 2 weeks at 40° C. / Solution stability, Time Zero: 90:10 acetonitrile:water with 0.1% TFA; for Solution stability, Time Zero: 0.3 mg/mL
Description: Solution Stability. The four final salt candidates were dissolved (in duplicate) in acetonitrile: water: (90:10) with 0.1% TFA at a concentration of 0.3 mg (free base basis) per mL of solvent. The scintillation vials were sealed. One vial of each salt solution was placed in a 40™C over for 2 weeks. Another vial of each salt solution was stored at 25° C. for 2 week. These solutions (and “time zero” solutions) were analyzed for CYT-1010 by HPLC.
as §1, §2
The solution stability characteristics were evaluated by collecting HPLC data on solutions stored in sealed vials for two weeks at approximately 25 and 40° C. The storage solution consisted of 90:10 acetronitrile:water with 0.1% TFA which is the diluent for the HPLC assay.

[4] = Photostability (ICH option 2 UV, HPLC); format: physicochemical; conditions: for Photostability, 2 weeks UV Exposed: ICH option 2 UV; for Photostability, 2 weeks UV Exposed / Photostability, 2 weeks Dark Control: about 25° C.; for Photostability, 2 weeks Dark Control: covered with aluminum foil; for decrease in area %, photostability: from time zero to UV exposed
Description: Photo Stability. Samples of the four final salt candidates were transferred (in duplicate) to crystallizing dishes and sealed with Saran® wrap. One dish of each salt was also covered with aluminum foil (as the dark controls). Another dish of each salt was not covered with aluminum foil (as the photoexposed samples). The samples were exposed to ICH compliant option 2 UV sources to examine their stability with respect to light at approximately 25° C. Dark controls and time zero samples were also analyzed for comparison. Samples were analyzed for CYT-1010 by HPLC.
as §1, §2
Samples of the four salt candidates were exposed to ICH compliant option 2 UV sources to examine their stability with respect to light at approximately 25° C. Dark controls were also analyzed for comparison.

[5] = Solid state stability (HPLC total area normalization); format: physicochemical; conditions: for Solid state stability, 2 weeks at 25° C. / Solid state stability, 2 weeks at 60° C.: sealed vial
Description: Solid State Stability. Power samples of the four final salt candidates were transferred (in duplicate) to scintillation vials and sealed. One vial of each salt was placed in a 60° C. over for 2 week. Another vial of each salt was stored at 25° C. for 2 week. These samples (and “time zero” solutions) were analyzed for CYT-1010 by HPLC.
as §1, §2
The solid state stability characteristics were evaluated by collecting HPLC data on salt samples stored in sealed vials at 25 and 60° C. for two weeks.

[6] = Dynamic vapor sorption (DVS); format: physicochemical; conditions: 25° C.
Description: Dynamic Vapor Sorption (DVS) (Performed by Surface Measurement Systems Ltd., Allentown, Pa.). Samples were run in an automated dynamic vapor sorption analyzer from 0 to 95% relative humidity and back to 0% relative humidity at 25° C. in 5% RH steps. Samples were predried (to constant mass) under a dry nitrogen stream before analysis. Weight change as a function of humidity and time was recorded to construct a moisture isotherm and kinetic plot of water sorption and desorption. Sample masses were generally in the range of 1-5 mg.

physchem = conditions: aqueous buffer
[7] = 2 weeks pure oxygen atmosphere, 25° C.
[8] = 2 weeks at 25° C. versus time zero
[9] = 2 weeks at 60° C. as compared to 25° C. data

delta receptors, sequence (P41143 whole entry): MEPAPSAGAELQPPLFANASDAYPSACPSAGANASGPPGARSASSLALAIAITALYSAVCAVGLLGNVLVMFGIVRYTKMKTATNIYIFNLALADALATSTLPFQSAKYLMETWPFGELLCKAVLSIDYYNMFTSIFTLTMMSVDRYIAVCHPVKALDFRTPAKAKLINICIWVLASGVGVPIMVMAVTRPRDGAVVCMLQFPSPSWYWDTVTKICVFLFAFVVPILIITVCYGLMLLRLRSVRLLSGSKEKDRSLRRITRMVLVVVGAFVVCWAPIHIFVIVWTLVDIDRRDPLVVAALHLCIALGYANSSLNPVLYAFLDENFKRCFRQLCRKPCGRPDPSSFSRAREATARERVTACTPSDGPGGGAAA

H-Tyr-Pro-Trp-Phe-NH2 [SEQ ID NO:1]
fold weaker binding to delta receptors than to mu opiate receptor (delta receptors): over 4000 fold

Lactate
Impurity by RRT 0.87 [1, 7]: <0.03 area % | Impurity by RRT 0.89 [1, 7]: 0.24 area % | Impurity by RRT 0.92 [1, 7]: 0.20 area % | Impurity by RRT 0.95 [1, 7]: 0.13 area % | Impurity by RRT 1.02 [1, 7]: 0.49 area % | Impurity by RRT 1.03 [1, 7]: 0.15 area % | Impurity by RRT 1.18 [1, 7]: <0.03 area % | Oxidation stability, 2 weeks Oxidation [1, 7]: 98.8 area % | Oxidation stability, Time Zero [1]: 99.2 area % | Impurity by RRT 0.89 [2]: 0.04 area % | Impurity by RRT 0.92 [2]: 0.08 area % | Impurity by RRT 0.95 [2]: 0.10 area % | Impurity by RRT 1.02 [2]: 0.49 area % | Impurity by RRT 1.03 [2]: 0.13 area % | Impurity by RRT 1.18 [2]: <0.03 area % | Solution stability, 2 weeks at 25° C. ([3]; 2 weeks at 25° C.): 98.5 area % | Solution stability, 2 weeks at 40° C. ([3]; 2 weeks at 40° C.): 98.5 area % | Impurity by RRT 0.21 ([3]; solution, 2 weeks at 25° C.): 0.59 area % | Impurity by RRT 0.89 ([3]; solution, 2 weeks at 25° C.): 0.05 area % | Impurity by RRT 0.92 ([3]; solution, 2 weeks at 25° C.): 0.11 area % | Impurity by RRT 0.95 ([3]; solution, 2 weeks at 25° C.): 0.14 area % | Impurity by RRT 1.02 ([3]; solution, 2 weeks at 25° C.): 0.49 area % | Impurity by RRT 1.03 ([3]; solution, 2 weeks at 25° C.): 0.15 area % | Impurity by RRT 0.21 ([3]; solution, 2 weeks at 40° C.): 0.62 area % | Impurity by RRT 0.89 ([3]; solution, 2 weeks at 40° C.): 0.04 area % | Impurity by RRT 0.92 ([3]; solution, 2 weeks at 40° C.): 0.04 area % | Impurity by RRT 0.95 ([3]; solution, 2 weeks at 40° C.): 0.14 area % | Impurity by RRT 0.98 ([3]; solution, 2 weeks at 40° C.): <0.03 area % | Impurity by RRT 1.02 ([3]; solution, 2 weeks at 40° C.): 0.50 area % | Impurity by RRT 1.03 ([3]; solution, 2 weeks at 40° C.): 0.16 area % | Impurity by RRT 1.32 ([3]; solution, 2 weeks at 40° C.): <0.03 area % | Impurity by RRT 2.39 ([3]; solution, 2 weeks at 40° C.): <0.03 area % | Solution stability, Time Zero [3]: 99.2 area % | Photostability, 2 weeks UV Exposed [4]: 98.6 area % | Photostability, 2 weeks Dark Control [4]: 99.0 area % | Photostability, Time Zero [4]: 99.2 area % | decrease in area %, photostability [4]: 0.6 area % | decrease in area %, solid state stability [5, 8]: 0.2 area % | decrease in area %, solid state stability [5, 9]: 0.5 area % | Solid state stability, Time Zero [5]: 99.2 area % | Solid state stability, 2 weeks at 25° C. [5]: 99.0 area % | Solid state stability, 2 weeks at 60° C. [5]: 98.5 area % | DVS water uptake ([6]; 0-70% RH range): 1-3 wt % | DVS water uptake ([6]; by 90% RH): up to 6 wt %

NC(Cc1ccc(O)cc1)C(=O)NC1CCCCNC(=O)C(Cc2ccccc2)NC(=O)C(Cc2c[nH]c3ccccc23)NC1=O [Free Base, H-Tyr-c-[D-Lys-Trp-Phe]]
Impurity by RRT 0.87 [1, 7]: 0.04 area % | Impurity by RRT 0.89 [1, 7]: 0.30 area % | Impurity by RRT 0.92 [1, 7]: 0.20 area % | Impurity by RRT 0.95 [1, 7]: 0.04 area % | Impurity by RRT 1.02 [1, 7]: 0.53 area % | Impurity by RRT 1.03 [1, 7]: 0.20 area % | Oxidation stability, 2 weeks Oxidation [1, 7]: 97.7 area % | decrease in area %, oxidative stability ([1]; 2 weeks pure oxygen versus time zero): 1.5 area % | Oxidation stability, Time Zero [1]: 99.2 area % | Impurity by RRT 0.89 [2]: 0.09 area % | Impurity by RRT 0.92 [2]: 0.05 area % | Impurity by RRT 1.02 [2]: 0.53 area % | Impurity by RRT 1.03 [2]: 0.16 area % | Solution stability, 2 weeks at 25° C. ([3]; 2 weeks at 25° C.): 98.6 area % | Solution stability, 2 weeks at 40° C. ([3]; 2 weeks at 40° C.): 98.7 area % | Impurity by RRT 0.21 ([3]; solution, 2 weeks at 25° C.): 0.50 area % | Impurity by RRT 0.89 ([3]; solution, 2 weeks at 25° C.): 0.06 area % | Impurity by RRT 0.92 ([3]; solution, 2 weeks at 25° C.): 0.04 area % | Impurity by RRT 0.95 ([3]; solution, 2 weeks at 25° C.): 0.06 area % | Impurity by RRT 1.02 ([3]; solution, 2 weeks at 25° C.): 0.53 area % | Impurity by RRT 1.03 ([3]; solution, 2 weeks at 25° C.): 0.18 area % | Impurity by RRT 0.21 ([3]; solution, 2 weeks at 40° C.): 0.50 area % | Impurity by RRT 0.89 ([3]; solution, 2 weeks at 40° C.): 0.04 area % | Impurity by RRT 0.95 ([3]; solution, 2 weeks at 40° C.): 0.03 area % | Impurity by RRT 1.02 ([3]; solution, 2 weeks at 40° C.): 0.51 area % | Impurity by RRT 1.03 ([3]; solution, 2 weeks at 40° C.): 0.18 area % | Solution stability, Time Zero [3]: 99.2 area % | Photostability, 2 weeks UV Exposed [4]: 98.9 area % | Photostability, 2 weeks Dark Control [4]: 99.0 area % | Photostability, Time Zero [4]: 99.2 area % | decrease in area %, photostability [4]: 0.3 area % | decrease in area %, solid state stability [5, 8]: 0.4 area % | decrease in area %, solid state stability [5, 9]: decreased slightly | Solid state stability, Time Zero [5]: 99.2 area % | Solid state stability, 2 weeks at 25° C. [5]: 98.8 area % | Solid state stability, 2 weeks at 60° C. [5]: 98.7 area % | changes in HPLC-TAN values upon exposure to heat, light, or oxygen ([5]; summary of Tables 6-9): did not exhibit significant changes | DVS water uptake ([6]; by 90% RH): up to 1.7 wt % | solubility (physchem; pH 7): < 3 µg/mL | solubility (physchem; pH 10): 6 µg/mL (≈ 9.6 µM)

Source: patent publication US8940704B2, “Advantageous salts of μ-opiate receptor peptides” (Cytogel Pharma, LLC, priority 2007, dated 2015)
